Results taken from patent US20220288010A1, “METHODS FOR REDUCING REWARDING EFFECTS OF MORPHINE WITHOUT AFFECTING ITS ANALGESIC EFFECTS” (The Board of Trustees of the Leland Stanford Junior …, priority 2019, published 2022).
Entries after “also recorded” stand apart in the source; their conditions may differ.

Key:
mice [1] = assay: morphine conditioned place preference (CPP) paradigm to assess morphine reward; type: in vivo
Description: The ability of a MAGL inhibitor to attenuate the rewarding effect of an opioid can also be assessed in animal models. For example, a morphine conditioning place preference (CPP) paradigm can be used as a preclinical model to measure reward, in which mice are conditioned to associate a particular chamber with the rewarding effects of morphine (see, e.g., Example 1). Reward, e.g., as measured by a preference for the morphine chamber, can be assessed at different phases of morphine conditioning, for example to assess if a MAGL inhibitor decreases or inhibits the establishment of the rewarding effect or of its maintenance or expression.
Endocannabinoid signaling is primarily regulated by MAGL and FAAH, the two enzymes responsible for catabolizing the endogenous cannabinoids, 2-AG and anandamide. Although some studies have shown that inhibition of these enzymes reduces certain aspects of morphine withdrawal, no studies exist that have examined their role in morphine reward. We utilized the morphine conditioned place preference (CPP) paradigm, to assess morphine reward, in which mice are conditioned to associate a particular chamber with the rewarding effects of morphine (FIG. 1A). […] To test the effect of systemic blockade of MAGL with the pharmacological inhibitor JZL-184 on morphine reward, on Day 1 mice underwent a baseline test, on Day 2-5 mice were conditioned to morphine wherein they received an intraperitoneal (i.p.) injection of JLZ-184 (10 mg/kg, i.p.), two hours prior to each morphine conditioning session (FIG. 1B). On day 6, mice were tested for morphine preference. […] Next, to test if this effect of MAGL inhibition was selective for the conditioning phase or potentially could also alter the expression of the morphine preference, mice were injected with JLZ-184 two hours prior to the Day 6 morphine preference test, in the absence of morphine (FIG. 1D).
In order to expand our findings, we decided to test the (R)-3t compound, a reversible MAGL inhibitor, in morphine conditioned place preference. As with JZL-184, (R)-3t (20 mg/kg) was given before each morphine conditioning session (FIG. 3A).
To test the effect of inhibiting the enzyme FAAH on the rewarding effects of morphine, we tested the effect of the FAAH inhibitor PF-3845 in morphine conditioned place preference. […] We additionally found no effect of PF-3845 (10 mg/kg, i.p.) on morphine-induced analgesia and morphine tolerance using the tail-flick test (FIGS. 4E-G).
Inhibition of the MAGL enzyme with JZL-184 results in lower metabolization of the endogenous cannabinoid 2-AG. This implies higher availability of this endogenous cannabinoid receptor 1 (CB1) ligand to activate CB1 receptors. Next, we tested the effect of activating the CB1 receptor with the exogenous CB1 ligand, THC, on morphine conditioned place preference. Mice were systemically administered THC prior to each morphine conditioning session (FIG. 5A).

[2] = tested on: monoacylglycerol lipase (MAGL); settings: cited from earlier work
mice [3] = assay: cocaine conditioned place preference (CPP); type: in vivo; settings: JZL-184 prior to each cocaine conditioning session
Description: Although drugs of abuse exert their rewarding effects through similar pathways and brain structures, they use different mechanisms. […] Mice were pretreated with JZL-184 prior to each cocaine conditioning session (FIG. 6A).

[4] = tested on: nucleus accumbens (NAc) activity; assay: in vivo fiber photometry (GCaMP6s) recording during morphine CPP; settings: JZL-184 treated mice
Description: FIGS. 7A-7D. MAGL inhibition reduces nucleus accumbens (NAc) activity during morphine CPP. FIG. 7A: Experimental timeline for fiber photometry recording during […]. FIG. 7B: Brain schematic with an optic fiber implanted into the NAc expressing the calcium indicator GCaMP6s and a representative image of the GCaMP6s expressing in the NAc (aca=anterior commissure, AcbC=nucleus accumbens core, AcbSh=nucleus accumbens shell). FIG. 7C: Graph of the quantification of the mean signal (representative of NAc activity) around zone entry into the morphine- or saline-paired chambers of vehicle- or JZL-184-pretreated animals. (dF/F (%) data for the average signal +/− 5s around zone entries; vehicle-treated animals, morphine vs saline chamber *p<0.05, n=6; JZL-184 treated animals, morphine vs saline p=0.054, n=9). FIG. 7D: Graph of the quantification of the onset of approach to morphine- or saline-paired chambers (dF/F (%) data for the average signal +/− 5s of the onset of approaching a chamber; vehicle-treated animals, morphine vs saline chamber *p<0.05, n=6; JZL-184 treated animals, morphine vs saline p=0.39, n=9).
The rewarding effects of morphine have been linked to neural activity of the brain region the nucleus accumbens. […]

mice [5] = assay: tail flick test, morphine analgesia, cumulative dose response of morphine; type: in vivo
mice [6] = assay: tail flick test, tolerance to morphine's analgesic effects; type: in vivo
Procedure: Chronic morphine treatment can result in tolerance to its analgesic effects; therefore, to test if morphine tolerance was affected by MAGL inhibition, for four consecutive days mice received a morning and afternoon injection of JZL-184 (10 mg/kg, i.p.), two hours prior to an injection of morphine (10 mg/kg), and antinociception was assessed every other day in the tail flick test.

[7] = pretreatment with PF-3845 10 mg/kg i.p.

Q: For `Cc1ncccc1-c1cc(F)cc(N2C[C@H](N3CCN(c4ncccn4)CC3)CC2=O)c1` [(R)-3t, (4R)-1-[3-fluoro-5-(2-methylpyridin-3-yl)phenyl]-4-[4-(pyrimidin-2-yl)piperazin-1-yl]pyrrolidin-2-one], which “acquisition of morphine CPP (morphine reward)” value (mice [1]; (R)-3t 20 mg/kg before each morphine conditioning session) is on record?
A: resulted in a lack of morphine reward; also recorded: abolishes the rewarding effects of morphine; also recorded: abolishes acquisition of CPP

Q: Which results are given for `O=C(Oc1ccc([N+](=O)[O-])cc1)N1CCC(C(O)(c2ccc3c(c2)OCO3)c2ccc3c(c2)OCO3)CC1` [JZL-184, (4-nitrophenyl) 4-[bis(1,3-benzodioxol-5-yl)-hydroxymethyl]piperidine-1-carboxylate]?
A: selectivity for MAGL over other brain serine hydrolases, including FAAH [2]: highly selective for MAGL over other brain serine hydrolases; acquisition of cocaine CPP (cocaine reward) (mice [3]): did not have any effect on cocaine reward; also recorded: does not alter the acquisition of cocaine CPP; acquisition of morphine CPP (morphine reward) (mice [1]; JZL-184 10 mg/kg i.p. two hours prior to each morphine conditioning session (Day 2-5), preference test Day 6, 10 mg/kg): abolishes morphine reward; also recorded: abolishes the rewarding effects of morphine; also recorded: abolished morphine CPP; expression of morphine CPP (mice [1]; JZL-184 two hours prior to the Day 6 morphine preference test, in the absence of morphine): does not alter the expression of morphine CPP; expression of morphine CPP (mice [1]; JZL-184 two hours prior to the Day 6 morphine preference test, in the absence of morphine, listed as JLZ-184): had no effect on morphine reward; higher nucleus accumbens activity when approaching the morphine-paired chamber ([4]; onset of approach (FIG. 7D)): abolished; increase in nucleus accumbens activity prior to entry into the morphine-paired chamber vs saline-paired chamber ([4]; signal around zone entry (FIG. 7C)): absent; morphine-induced analgesia (mice [5]; JZL-184 10 mg/kg i.p. two hours before morphine 0.1-10 mg/kg cumulative, tested 30 minutes after each dose): did not alter the analgesic effects of morphine; also recorded: does not affect morphine-induced analgesia; development of tolerance to morphine's analgesic effects (mice [6]; JZL-184 10 mg/kg i.p. morning and afternoon, two hours prior to morphine 10 mg/kg, four consecutive days, compared to vehicle): delayed morphine-induced tolerance; also recorded: delays the development of tolerance to morphine's analgesic effects

Q: Which “acquisition of morphine CPP” value (mice [1]; PF-3845 10 mg/kg i.p. before each conditioning session, 10 mg/kg) does the source give for `O=C(Nc1cccnc1)N1CCC(Cc2cccc(Oc3ccc(C(F)(F)F)cn3)c2)CC1` [PF-3845] here?
A: had no effect on acquisition of morphine conditioned place preference; also recorded: does not alter acquisition of morphine CPP

Q: And the “expression of morphine CPP” value (mice [1]; PF-3845 10 mg/kg i.p. before the morphine CPP expression test, 10 mg/kg)?
A: had no effect; also recorded: does not alter

Q: And the morphine-induced analgesia (mice [5]; [7])?
A: no effect; also recorded: are not affected

Q: And the morphine tolerance (mice [6]; [7])?
A: no effect; also recorded: are not affected

Q: Which “acquisition of morphine CPP (morphine reward)” value (mice [1]; THC systemically prior to each morphine conditioning session) does the source give for `CCCCCc1cc(O)c2c(c1)OC(C)(C)[C@@H]1CCC(C)=C[C@@H]21` [THC, Δ^9-Tetrahydrocannabinol] here?
A: had no effect on morphine reward; also recorded: does not alter the acquisition of morphine CPP
